Laboratory results from patent US20250057951A1, “DISCERNIBLE CELL SURFACE PROTEIN VARIANTS OF CD117 FOR USE IN CELL THERAPY” (UNIVERSITÄT BASEL, priority 2021, published 2025).

Tests used:
TF-1 cells [1] = test: SCF-dependent proliferation, SCF titration on TF-1 cells with CD117 variants (CellTiter-Glo); type: cell-based, human; settings: titration of SCF; 3 days; TF-1 cells with the CD117 variant
Method in brief: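 TF-1 cells expressing wildtype or variant CD117 seeded at 150 000 cells/ml in RPMI+GlutaMax+10% FCS and titrated with SCF. Viability read by CellTiter-Glo 2.0 luminescence after 3 days; EC50 determined from two experiments, each in triplicate.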

TF-1 cells [2] = test: SCF-dependent phosphorylation of CD117 variants in TF-1 cells (Tyr719 ELISA); type: cell-based, human; settings: 1-20 ng/ml SCF for 5 minutes
Experimental: TF-1 cells (wild type, knock out, and variants E73K, D121K and S123K of CD117) were seeded at a concentration of 1 million cells/ml in 2 ml of Medium (RPMI1640 supplemented with GlutaMAX+10% heat inactivated FBS) in a 6-well plate. Cells were treated with 1-20 ng/ml recombinant human SCF (1 mg/ml PeproGMP Recombinant Human SCF) for 5 minutes, before cell collection. Cells were washed with ice-cold PBS, before resuspending cells in 500 μL Lysis Buffer (Lysis buffer from Signaling containing Protease Inhibitor and Phosphatase Inhibitor). Cells were flash frozen in liquid nitrogen and thawed at 37° C. twice, before freezing them at −80° C. until further usage. Undiluted samples were thawed and processed according to the manufacturers protocol for the PathScan Phospho-c-Kit (Tyr719) Sandwich ELISA Kit (Cell Signaling). Absorbance (OD_450 nm) was assessed using the Envision (Perkin Elmer).

antibody Refmab #1 [3] = test: Octet screen: binding of CD117 D1-2-3 variants to captured Refmab #1; settings: nm shift at end of association, top analyte concentration (500 nM)
Method in brief: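 Refmab #1 captured on anti-human Fc biosensors; human CD117 D1-2-3 wt or variants flowed as analyte at 500, 50 and 5 nM, 25° C., 300 s association/900 s dissociation, buffer-referenced. Binding level at top concentration, end of association, expressed as percent of wild type; 1:1 fits where possible.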

CD117+ myeloid cells = test: Depletion experiment in NSG mice with E73K gene-edited HSPCs; type: in vivo; settings: in the presence of isotype control antibody
Experimental: In another experiment, NSG mice (Jackson Laboratories) were sub-lethally irradiated one day before injection with 1 Mio gene-edited HSPCs carrying a E73K variant of CD117. 8, 10, 12 and 14 days after cell injection mice received 25 mg/kg antibody Refmab #1-Bert or 25 mg/kg isotope control antibody i.v. per dose. 16 weeks later the mice were euthanized, and blood, spleen and bone marrow were analyzed by FACS.
CD117+ myeloid cells were identified by FACS as live/hCD45+/CD33+/CD117+. […] Clone 104D2 was used as an expression control. Cells were classified as not edited (104D2+ and SR-1+) or E73K edited (104D2+ but SR-1−) based on double staining with anti-CD117 clone SR-1 and anti-CD117 clone 104D2.

antibody Refmab #1 [4] = test: Octet titration, steady state KD of CD117 D1-2-3 variants to Refmab #1; type: binding
Experimental: To further characterize binding of Refmab #1 to CD117 D1-2-3 variants E73K, E73L, E73R, E73Y, D121H, D121K, S123K and S123F, the analytes were titrated at 7 different concentrations (from 2000 nM to 5 nM). Antibody Refmab #1 was captured by AHC biosensors for 300 s at 0.5 to 1 μg/mL. Association and dissociation to Refmab #1 was extended to 600 s and 1000 s, respectively. Steady state analysis was performed.

TF-1 cells [5] = test: SCF-dependent proliferation of TF-1 cells with CD117 knock-in (CellTiter-Glo); type: cell-based, human; settings: 100 ng/ml SCF; 3 days; knock-in TF-1 cells
Experimental: SCF-dependent proliferation is another function of CD117. SCF-dependent proliferation was measured as follows: TF-1 cells were seeded at a cell concentration of 150 000 cells/ml in sterile, white cell culture treated plates in RPMI Media+10% FCS. Cells were treated with 100 ng/ml of SCF and a titration of various CD117 antibodies or an isotype control antibody at different concentrations. After 3 days of incubation a CellTiter-Glo 2.0 assay (Promega) was performed and luminescence was read in a luminometer (e.g. Envision or Phera Star plate readers).
CD117 wild-type TF-1 cells were compared to TF1 cells with a E73K knock in. […] Both KI1 and KI2 were obtained upon sorting the edited TF1 cells using the SONY MA900, removing any wild-type and knock out cells from the final subsets, thus yielding high purity of knock in.

Refmab #1 = Refmab #1 titration on engineered TF-1 cells (flow cytometry); type: binding; settings: 5-0.00015 μg/mL antibody; 4° C.

Sequence of antibody Refmab #1 (as listed by the source): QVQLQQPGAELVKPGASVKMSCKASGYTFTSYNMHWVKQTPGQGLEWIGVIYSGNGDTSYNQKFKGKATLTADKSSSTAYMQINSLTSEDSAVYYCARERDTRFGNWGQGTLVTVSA
Sequence of antibody Refmab #1 (as listed by the source): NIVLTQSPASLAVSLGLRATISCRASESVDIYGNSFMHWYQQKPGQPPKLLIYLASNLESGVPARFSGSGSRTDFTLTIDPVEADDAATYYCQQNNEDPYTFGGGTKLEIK

Substance: E73K: variant of human CD117 (SEQ ID NO: 1) with substitution E73K
- EC50 Experiment #1 (TF-1 cells [1]): 3.73 ng/mL
- EC50 Experiment #2 (TF-1 cells [1]): 3.42 ng/mL
- SCF-dependent phosphorylation at position Tyr719 of CD117 (TF-1 cells [2]): showed a SCF-dependent phosphorylation
- binding to Refmab #1 compared to wild type (antibody Refmab #1 [3]): strong decrease in binding
- engraftment of edited CD34+ human cells in immune-deficient mice (CD117+ myeloid cells): engraft essentially as well as unedited cells
- Kd (antibody Refmab #1 [4]; 7 concentrations 2000-5 nM, steady state, two individual experiments): 1200 nM
- change of KD compared to wild type CD117 (antibody Refmab #1 [4]; KD variant vs wild type): 1200 fold
- SCF-dependent proliferation (TF-1 cells [5]): strongly proliferated
- Binding of Refmab #1 to TF-1 cells expressing the CD117 variant (Refmab #1): completely abolished
